According to patent US20110262502A1, “PULMONARY DELIVERY OF 17-HYDROXYPROGESTERONE CAPROATE (17-HPC)” (Prairie Pharmaceuticals LLC, priority 2010, published 2011):
Like-named read-outs stand apart in the source and are kept apart here.

Tests used:
[1] = system: PHA-induced IL-2 production in PBMCs; test: PHA-induced IL-2 production in PBMCs from healthy male smokers (no IL-2/IL-4 added), ELISA; assay type: cell-based, human
Description: PBMCs were isolated from human blood buffy coats provided by a regional blood center. Random buffy coat cells from male donors were a by-product of blood processed for clinical use and no details (i.e., personal identification and background) were provided except for tobacco use. […] PBMCs were separated using a porous high density polyethylene barrier (HISTOPAQUE from GEHealthcare Bio-Sciences AB (US). After centrifugation of blood samples in each tube (35 minutes at 800×g at room temperature, or RT), PBMCs were collected and washed twice with Hank's buffered saline solution (HBSS). PBMCs were resuspended in RPMI-1640 medium containing 10% fetal calf serum (FCS) and 15 mM glutamine and cells were counted and plated.
(§1) PBMCs (2×10^6) were incubated with or without IL-2 (13 ng/ml) and IL-4 (6.5 ng/ml) for 48 hours in RPMI-1640 medium containing 10% FCS and 2 mM glutamine. […] IL-2 and IL-4 stimulated PBMCs were also plated at a concentration of 10^6 cells/ml in 96-well plates ready for PHA (15 μg/mL, 24 hours) stimulation of cytokine release and detection by ELISA.
Serial dilutions of standards and PBMCs' supernatants were measured by enzyme linked immunosorbent assay to determine IL-2 at baseline and its levels after 17HPC, P4 and MAP treatments. Optical density was measured at 450 nm and corrected with 550 nm. The concentration of TL-2 was calculated using the standard curve and taking into account the supernatant dilution used. Detection limit for IL-2 is 4.0 pg/ml.
Data are expressed as mean±SD. The efficacies of the drug treatments were analyzed by paired t-test. One-way analysis of variance was used to compare three or more matched groups and 95% CI was performed to present groups differences. All graphs indicate mean values of results or % inhibition of PHA-stimulated IL-2. IC50 values were calculated by using a sigmoidal model (BioDataFit). A p value <0.05 was considered statistically significant.
(§2) IL-2 levels were quantified using ELISA.
IL-2 levels were quantified using ELISA. IC50 values were calculated by using a sigmoidal model (BioDataFit).
as §2, §2, §2

[2] = system: PHA-induced IL-2 release in IL-2 and IL-4 treated (steroid resistant) PBMCs; test: IL-2/IL-4 induced steroid resistance model in PBMCs: dexamethasone inhibition of PHA-induced IL-2 release; assay type: cell-based, human; conditions: FIG. 9; Dexamethasone 10^−10 M
Description: J Immunol 2009; 183; 164-171). […] Following PBMCs stimulation with mitogen phytohaemagglutinin (PHA), there is a strong correlation between cytokine secretion levels and steroid resistance as well as steroid sensitivity in vitro. Addition of IL-2, IL-4 and TNF-reduce steroid sensitivity.
as §1
IL-2/4 induced steroid resistance in PBMCs, a well-recognized study model, was used to evaluate potential modifiers of steroid resistance and sensitivity. PBMCs from healthy smokers were collected. Corticosteroid insensitivity or resistance was induced by adding IL-2 and IL-4 in peripheral blood mononuclear cells (PBMCs) from healthy male smokers (n=˜11). […] IL-2 levels were quantified using ELISA.
J Immunol 2009; 183; 164-171).
as §2

[3] = system: mitogen-activated protein kinase; conditions: rat uterine smooth muscle; cited from earlier work
[4] = Dynamic vapor sorption (DVS) of 17-HPC powder; assay type: physicochemical; conditions: FIG. 18; increasing percent relative humidity
Description: Dynamic vapor sorption (DVS) is a gravimetric technique that measures how quickly and how much of a solvent is absorbed by a sample, such as a dry powder absorbing water. DVS accomplishes this by varying the vapor concentration surrounding the sample and measuring the change in mass which this produces.
Analysis of 17-HPC dry powder (obtained after particle size reduction and spray drying or SD) was performed. FIG. 18 depicts exemplary results from a dynamic vapor sorption (DVS) analysis of a dry powder obtained after a spray-drying (SD) process. One particular batch (PGC2011-020PD) was selected to be analyzed by DVS. […] There was no substantive change in adsorption or desorption even with conditions of increasing percent relative humidity. Referring to FIG. 19, exemplary results are shown of XRPD analysis of a 17-HPC dry powder obtained after particle size reduction and a spray-drying (SD) process. One particular batch (PGC2011-020PD) was selected to be analyzed by XRPD.

[5] = API particle size distribution (Dv(10), Dv(50), Dv(90), Span); assay type: physicochemical
Source text: In determining and characterizing particle size, e.g., particle size of an API (active pharmaceutical ingredient), the particle size parameters Dv(10), Dv(50) and Dv(90) may be used. Particle size measurements are preferably expressed in terms of Dv(10), Dv(50), and Dv(90), wherein Dv(10) refers to the particle size below which 10% of the volume of material exists; Dv(50) refers to the particle size below which 50% of the volume of material exists; and Dv(90) refers to the particle size below which 90% of the volume of material exists.
Referring to Table 5, experiments were performed with a suspension comprising the active pharmaceutical ingredient (the API), i.e., 17-HPC was the API in these experiments, wherein 17-HPC was present at approximately five percent (5%) w/w in water; and the suspension also comprised the surfactant Tween 80 at approximately 15% in these experiments (processing conditions conducted at Pressure=90 bar). […] Particle size measurements are expressed in terms of Dv(10), Dv(50), and Dv(90), wherein Dv(10) refers to the particle size below which 10% of the volume of material exists; Dv(50) refers to the particle size below which 50% of the volume of material exists; and Dv(90) refers to the particle size below which 90% of the volume of material exists). […]
Exemplary particle size reduction experiments, and characterization of API (i.e., 17-HPC) particle size distribution, using a suspension prepared without a surfactant. Referring to Table 7, particle size reduction of 17-HPC was observed without using any surfactant. Experiments were performed with a suspension comprising the active pharmaceutical ingredient (the API), i.e., 17-HPC in these experiments, in water and without a surfactant. FIG. 16 depicts an exemplary API particle size distribution profile (17-HPC is the active ingredient) after a spray-drying (SD) process. Referring again to FIG. 16, and also to Table 7, an exemplary 17-HPC particle size distribution profile was obtained after approximately 10 to 55 cycles of milling. API particle size was measured after spray drying (SD). Particle size measurements are expressed in terms of Dv(10), Dv(50), and Dv(90), wherein Dv(10) refers to the particle size below which 10% of the volume of material exists; Dv(50) refers to the particle size below which 50% of the volume of material exists; and Dv(90) refers to the particle size below which 90% of the volume of material exists).

[6] = MPA 10^−5M + Dexamethasone 10E−8M
[7] = MPA 10^−8M + Dexamethasone 10E−8M
[8] = MPA 10^−8M + Dexamethasone 10E−11M
[9] = MPA 10^−10M + Dexamethasone 10E−8M
[10] = Table 7, powders after spray drying, bulk material for comparison

Compound: CC(=O)O[C@]1(C(C)=O)CC[C@H]2[C@@H]3C[C@H](C)C4=CC(=O)CC[C@]4(C)[C@H]3CC[C@@]21C [MPA, MEDROXYPROGESTERONE ACETATE]
- inhibition at 0.01 µM ([1]; Homo sapiens, PBMC): 78%
- inhibition at 10 µM ([1]; Homo sapiens, PBMC): 95%
- inhibition at 0.0001 µM ([1]; Homo sapiens, PBMC, read-out: % inhibition of PHA-induced IL-2 production): 73%
- inhibition at 0.0001 µM ([1]; Homo sapiens, PBMC, read-out: IL-2 inhibition): ≥ 86%
- % inhibition of PHA-induced IL-2 production [1, 6]: (98%)
- mean IL-2 [1, 6]: 12.3 pg/mL
- mean IL-2 ([1]; MPA 10^−5M, PHA, no Dexamethasone): 39.8 pg/mL
- % inhibition of PHA-induced IL-2 production [1, 7]: 96%
- mean IL-2 [1, 7]: 29.2 pg/mL
- % inhibition of PHA-induced IL-2 production [1, 8]: (83%)
- mean IL-2 [1, 8]: 129.1 pg/mL
- mean IL-2 ([1]; MPA 10^−8M, PHA, no Dexamethasone): 166.9 pg/mL
- % inhibition of PHA-induced IL-2 production [1, 9]: (94%)
- mean IL-2 [1, 9]: 44.7 pg/mL
- mean IL-2 ([1]; MPA 10^−10M, PHA, no Dexamethasone): 206.1 pg/mL
- improvement in corticosteroid sensitivity, responding sub-group [2]: up to 58%
- reduction (worsening) in corticosteroid sensitivity, other sub-group [2]: up to 88%

Compound: estradiol-17 beta [estrogen]
- effect on MAPK tyrosine phosphorylation and membrane-associated MAPK activity [3]: increased MAPK tyrosine phosphorylation and membrane-associated MAPK activity

Compound: CCCCCC(=O)O[C@]1(C(C)=O)CC[C@H]2[C@@H]3CCC4=CC(=O)CC[C@]4(C)[C@H]3CC[C@@]21C [Bulk material]
- water uptake in DVS (percent change in weight vs RH %) [4]: neither the obtained powders nor the bulk material gained any measurable quantity of water
- Particle Size Dv(10) ([5]; Table 5, bulk material): 6.345 μm
- Particle Size Dv(50) ([5]; Table 5, bulk material): 56.762 μm
- Particle Size Dv(90) ([5]; Table 5, bulk material): 307.607 μm
- Particle Size Span ([5]; Table 5, bulk material): 5.307
- API particle size after SD (powders) Dv(10) [5, 10]: 2.398 μm
- API particle size after SD (powders) Dv(50) [5, 10]: 23.610 μm
- API particle size after SD (powders) Dv(90) [5, 10]: 98.799 μm
- API particle size after SD (powders) Span [5, 10]: 4.083
